Peptide text beside a SMILES is read from it.
Experiments:
HLA-C0602 = HLA-C0602 (Homo sapiens, UniProt P10321, A176E/A330V/C350S/L171W/L180W/L218V/M285V/M309V/M331V/N104K/P208H/Q277E/Q291P/R121W/S101N/S123Y/S297R/T329A/T363A/V319A/V328M); assay: Competitive peptide binding assay, CIR-C0602
HLA-C0102 = HLA-C0102 (Homo sapiens, UniProt P10321, A176E/A330V/A35S/A97T/C350S/D114A/D33F/L171W/L180R/L218V/M285V/M309V/M331V/P208H/Q277E/Q291P/R121W/R243W/R30K/S123C/S140Y/S297R/T329A/T363A/V272M/V319A); assay: Competitive peptide binding assay, CIR-C0102
Experimental: (§1) Then, competitive peptide binding assays were performed.

HLA-B3501 = HLA-B3501 (Homo sapiens, UniProt P01889, A329T/A93T/A95T/C349S/D201E/D98Y/E176V/E187L/E204Q/E69T/I218V/K202T/L119I/Q94N/R155S/R180L/S121R/S35A/S48A/T118I/V127L/V306I/V36M/Y140S/Y91F); assay: Competitive peptide binding assay, CIR-B3501; conditions: HMy2.CIR-B3501 cells, reference Cy5-[…], class from inhibition at 5 and 15 μM, flow cytometry MFI; read-out: Binding affinity with HLA-B3501
Experimental: as §1

HLA-B4601 = HLA-B4601 (Homo sapiens, UniProt P01889, A329T/A93R/C349S/D201E/E100V/E187L/E204Q/E69M/E70A/I90K/K202T/N87E/R155S/R180W/S121R/S35A/S48A/V306I/V36M/Y140S); assay: Competitive peptide binding assay, CIR-B4601; conditions: for IC50: HMy2.CIR-B4601 cells, reference Cy5-[…], class from inhibition at 5 and 15 μM, flow cytometry MFI, read-out: Binding affinity with HLA-B4601; for inhibition at 5 µM: read-out: Inhibition % of Cy5-reference peptide binding, CIR-B4601, 5μM peptide; for inhibition at 15 µM: read-out: Inhibition % of Cy5-reference peptide binding, CIR-B4601, 15μM peptide
Experimental: as §1

HLA-B1301 = HLA-B1301 (Homo sapiens, UniProt P01889, A65T/A93T/A95T/D138N/D201E/D98Y/E176V/E204Q/E69M/E70A/G107R/K202T/L105A/L119I/N104T/N87E/Q94N/R106L/R155S/R169L/R180L/S101N/S121R/S35A/S48T/T118I/V127L/V36M/Y140L/Y91S); assay: Competitive peptide binding assay, CIR-B1301; conditions: HMy2.CIR-B1301 cells, reference Cy5-[…], class from inhibition at 5 and 15 μM, flow cytometry MFI; read-out: Binding affinity with HLA-B1301
Experimental: as §1

HLA-B1501 = HLA-B1501 (Homo sapiens, UniProt P01889, A329T/A93T/A95T/C349S/D201E/D98Y/E187L/E204Q/E69M/E70A/K202T/N87E/Q94N/R155S/R180W/S121R/S35A/S48A/V306I/V36M/Y140S/Y91S); assay: Competitive peptide binding assay, CIR-B1501; conditions: HMy2.CIR-B1501 cells, reference Cy5-[…], class from inhibition at 5 and 15 μM, flow cytometry MFI; read-out: Binding affinity with HLA-B1501
Experimental: as §1

HLA-B5801 = HLA-B5801 (Homo sapiens, UniProt P01889, A329T/C349S/D201E/D98Y/E176V/E187L/E204Q/E69T/G107R/I218V/I90N/K202T/L105A/L119I/N104I/N87E/Q89R/Q94S/R106L/R155S/R180L/R86G/S101N/S121R/S35A/S48A/T118I/V127L/V306I/V36M/Y140S/Y91M); assay: Competitive peptide binding assay, CIR-B5801; conditions: HMy2.CIR-B5801 cells, reference Cy5-[…], class from inhibition at 5 and 15 μM, flow cytometry MFI; read-out: Binding affinity with HLA-B5801
Experimental: as §1

HLA-B1502 = HLA-B1502 (Homo sapiens, UniProt P01889, A329T/A93T/A95T/C349S/D201E/D98Y/E187L/E204Q/E69M/E70A/H137Y/K202T/L119I/Q94N/R155S/R180L/S121R/S35A/S48A/T118I/V306I/V36M/Y140S/Y91S); assay: Competitive peptide binding assay, CIR-B1502; conditions: HMy2.CIR-B1502 cells, reference Cy5-[…], class from inhibition at 5 and 15 μM, flow cytometry MFI; read-out: Binding affinity with HLA-B1502
Experimental: as §1

[1] = read-out: Inhibition % of Cy5-reference peptide binding

Row | SMILES | IC50 (HLA-C0602) [µM] | IC50 (HLA-B3501) [µM] | IC50 (HLA-B1301) [µM] | IC50 (HLA-B1501) [µM] | IC50 (HLA-B1502) [µM] | further results
1 | CC(C)C[C@H](NC(=O)[C@@H](NC(=O)[C@@H]1CCCN1C(=O)[C@H](CC(N)=O)NC(=O)[C@H](CC(=O)O)NC(=O)[C@H](Cc1ccccc1)NC(=O)[C@H](CCCNC(=N)N)NC(=O)[C@@H](N)CCCCN)C(C)C)C(=O)N1CCC[C@H]1C(=O)N[C@@H](Cc1ccccc1)C(=O)O [Epitope M125] (H-KRFDNPVLPF-OH; N-terminus and C-terminus assumed) | 5 to 15 |  |  |  |  | 
2 | CC(C)C[C@H](NC(=O)[C@H](C)NC(=O)[C@@H](NC(=O)[C@@H](N)CC(C)C)[C@@H](C)O)C(=O)N[C@@H](CCCNC(=N)N)C(=O)N[C@@H](CC(C)C)C(=O)N[C@@H](CS)C(=O)N[C@@H](C)C(=O)N[C@@H](Cc1ccc(O)cc1)C(=O)O [Epitope M51] (H-LTALRLCAY-OH; N-terminus and C-terminus assumed) | < 5 |  |  |  |  | IC50 (HLA-C0102; HMy2.CIR-C0102 cells, reference Cy5-[…], class from inhibition at 5 and 15 μM, flow cytometry MFI, read-out: Binding affinity with HLA-C0102): 5 to 15 µM; inhibition at 5 µM (HLA-C0102; [1]): 42.9%; inhibition at 15 µM (HLA-C0102; [1]): 77.6%
3 | CC[C@H](C)[C@H](NC(=O)[C@H](C)NC(=O)[C@@H](N)CC(C)C)C(=O)N[C@@H](CC(C)C)C(=O)N[C@H](C(=O)N[C@@H](C)C(=O)N[C@@H](CC(C)C)C(=O)N[C@@H](CCCNC(=N)N)C(=O)N[C@@H](CC(C)C)C(=O)O)[C@@H](C)O [Epitope Y7] (H-LAILTALRL-OH; N-terminus and C-terminus assumed) |  | 5 to 15 |  |  |  | IC50 (HLA-B4601): > 15 µM
4 | CC[C@H](C)[C@H](NC(=O)[C@@H](NC(=O)[C@H](CC(C)C)NC(=O)[C@H](CCC(=O)O)NC(=O)[C@H](CO)NC(=O)[C@H](CCC(=O)O)NC(=O)[C@H](CC(C)C)NC(=O)[C@H](CC(C)C)NC(=O)[C@@H]1CCCN1C(=O)[C@@H](N)CCCNC(=N)N)C(C)C)C(=O)O [Epitope Y43] (H-RPLLESELVI-OH; N-terminus and C-terminus assumed) |  |  | 5 to 15 |  |  | 
5 | CC[C@H](C)[C@H](N)C(=O)N[C@H](C(=O)N[C@@H](CC(=O)O)C(=O)N[C@@H](C)C(=O)N[C@H](C(=O)N[C@@H](CC(=O)O)C(=O)N[C@@H](CS)C(=O)N[C@@H](C)C(=O)N[C@@H](CC(C)C)C(=O)O)C(C)C)[C@@H](C)O [Epitope M161, ITDAVDCAL] (H-ITDAVDCAL-OH; N-terminus and C-terminus assumed) | > 15 |  |  |  |  | 
6 | CC[C@H](C)[C@H](NC(=O)[C@H](CCC(N)=O)NC(=O)[C@@H](N)CC(C)C)C(=O)N1CCC[C@H]1C(=O)N[C@@H](Cc1ccccc1)C(=O)N[C@@H](C)C(=O)N[C@@H](CCSC)C(=O)N[C@@H](CCC(N)=O)C(=O)N[C@@H](CCSC)C(=O)O [Epitope Y81] (H-LQIPFAMQM-OH; N-terminus and C-terminus assumed) |  |  | < 5 | > 15 |  | IC50 (HLA-B4601): > 15 µM; inhibition at 5 µM (HLA-B4601): 9.21%; inhibition at 15 µM (HLA-B4601): 44%
7 | CC(C)[C@H](NC(=O)CNC(=O)[C@H](CCC(=O)O)NC(=O)[C@H](CCCNC(=N)N)NC(=O)[C@@H]1CCCN1C(=O)[C@H](Cc1ccccc1)NC(=O)[C@H](Cc1c[nH]cn1)NC(=O)[C@H](C)N)C(=O)N[C@@H](Cc1ccccc1)C(=O)O [Epitope M157] (H-AHFPREGVF-OH; N-terminus and C-terminus assumed) | > 15 |  |  |  |  | 
8 | CC(C)C[C@H](NC(=O)[C@@H](N)CCC(N)=O)C(=O)N[C@H](C(=O)N1CCC[C@H]1C(=O)N[C@H](C(=O)N[C@@H](Cc1c[nH]c2ccccc12)C(=O)N[C@@H](CCCNC(=N)N)C(=O)N[C@H](C(=O)N[C@@H](Cc1ccc(O)cc1)C(=O)O)C(C)C)[C@@H](C)O)[C@@H](C)O [Epitope Y175] (H-QLTPTWRVY-OH; N-terminus and C-terminus assumed) |  | > 15 | > 15 | > 15 | 5 to 15 | IC50 (HLA-B5801): < 5 µM
9 | CC(C)C[C@H](NC(=O)[C@@H](NC(=O)[C@H](CCCNC(=N)N)NC(=O)[C@H](CO)NC(=O)[C@@H](NC(=O)[C@H](C)NC(=O)[C@@H](N)C(C)C)[C@@H](C)O)[C@@H](C)O)C(=O)N[C@@H](CO)C(=O)N[C@@H](Cc1ccc(O)cc1)C(=O)O [Epitope Y158] (H-VATSRTLSY-OH; N-terminus and C-terminus assumed) |  | 5 to 15 |  | < 5 | 5 to 15 | IC50 (HLA-B5801): > 15 µM
10 | CC(C)[C@H](NC(=O)CNC(=O)[C@H](Cc1c[nH]cn1)NC(=O)[C@@H]1CCCN1C(=O)[C@H](C)NC(=O)[C@H](CO)NC(=O)[C@@H](N)CCC(N)=O)C(=O)N[C@H](C(=O)N[C@@H](Cc1ccccc1)C(=O)O)C(C)C [Epitope Y146] (H-QSAPHGVVF-OH; N-terminus and C-terminus assumed) |  | > 15 |  | < 5 | 5 to 15 | 
11 | CC[C@H](C)[C@H](N)C(=O)N[C@@H](C)C(=O)N[C@@H](CC(N)=O)C(=O)N[C@@H](CCC(N)=O)C(=O)N[C@@H](Cc1ccccc1)C(=O)N[C@@H](CC(N)=O)C(=O)N[C@@H](CO)C(=O)N[C@@H](C)C(=O)N[C@H](C(=O)O)[C@@H](C)CC [Epitope Y283] (H-IANQFNSAI-OH; N-terminus and C-terminus assumed) |  |  | > 15 | 5 to 15 | > 15 | 
12 | CC(C)[C@H](NC(=O)[C@H](Cc1ccc(O)cc1)NC(=O)[C@H](CCC(=O)O)NC(=O)[C@H](Cc1ccccc1)NC(=O)[C@@H](N)[C@@H](C)O)C(=O)N[C@@H](CO)C(=O)N[C@@H](CCC(N)=O)C(=O)N1CCC[C@H]1C(=O)N[C@@H](Cc1ccccc1)C(=O)O [Epitope M180] (H-TFEYVSQPF-OH; N-terminus and C-terminus assumed) | > 15 |  |  |  |  | 
13 | CC[C@H](C)[C@H](NC(=O)CNC(=O)[C@H](CC(=O)O)NC(=O)[C@H](CCCCN)NC(=O)[C@H](CC(N)=O)NC(=O)[C@H](C)NC(=O)CNC(=O)[C@H](Cc1ccc(O)cc1)NC(=O)[C@@H]1CCCN1C(=O)[C@@H](N)CC(C)C)C(=O)O [Epitope Y273] (H-LPYGANKDGI-OH; N-terminus and C-terminus assumed) |  |  |  | > 15 | 5 to 15 | IC50 (HLA-B5801): > 15 µM; IC50 (HLA-B4601): > 15 µM; inhibition at 5 µM (HLA-B4601): 11.6%; inhibition at 15 µM (HLA-B4601): 31%
14 | CC(C)C[C@H](NC(=O)[C@H](CC(C)C)NC(=O)[C@H](CC(C)C)NC(=O)[C@H](C)NC(=O)[C@H](CC(C)C)NC(=O)[C@H](C)NC(=O)[C@H](C)NC(=O)[C@H](CC(=O)O)NC(=O)CN)C(=O)O [Epitope Y65] (H-GDAALALLL-OH; N-terminus and C-terminus assumed) |  | > 15 | < 5 | 5 to 15 |  | IC50 (HLA-B5801): 5 to 15 µM
